Test results: paper PMC6391970, “Design, Synthesis and Characterization of Covalent KDM5 Inhibitors” (Angewandte Chemie (International Ed. in English), 2018)
Like-named read-outs stand apart in the source and are kept apart here.

Legend:
Assay type in all cases: biochemical
KDM3A = molecular target: T1, KDM3A (Homo sapiens, UniProt Q9Y4C1); assay: KDM AlphaScreen selectivity panel, KDM3A; details: for IC50: AlphaScreen after 120 min pre-incubation, read-out: KDM IC50 3A; for SI over KDM5B, 3A: KDM3A IC50/KDM5B IC50
T1 sequence (Q9Y4C1 1-1321): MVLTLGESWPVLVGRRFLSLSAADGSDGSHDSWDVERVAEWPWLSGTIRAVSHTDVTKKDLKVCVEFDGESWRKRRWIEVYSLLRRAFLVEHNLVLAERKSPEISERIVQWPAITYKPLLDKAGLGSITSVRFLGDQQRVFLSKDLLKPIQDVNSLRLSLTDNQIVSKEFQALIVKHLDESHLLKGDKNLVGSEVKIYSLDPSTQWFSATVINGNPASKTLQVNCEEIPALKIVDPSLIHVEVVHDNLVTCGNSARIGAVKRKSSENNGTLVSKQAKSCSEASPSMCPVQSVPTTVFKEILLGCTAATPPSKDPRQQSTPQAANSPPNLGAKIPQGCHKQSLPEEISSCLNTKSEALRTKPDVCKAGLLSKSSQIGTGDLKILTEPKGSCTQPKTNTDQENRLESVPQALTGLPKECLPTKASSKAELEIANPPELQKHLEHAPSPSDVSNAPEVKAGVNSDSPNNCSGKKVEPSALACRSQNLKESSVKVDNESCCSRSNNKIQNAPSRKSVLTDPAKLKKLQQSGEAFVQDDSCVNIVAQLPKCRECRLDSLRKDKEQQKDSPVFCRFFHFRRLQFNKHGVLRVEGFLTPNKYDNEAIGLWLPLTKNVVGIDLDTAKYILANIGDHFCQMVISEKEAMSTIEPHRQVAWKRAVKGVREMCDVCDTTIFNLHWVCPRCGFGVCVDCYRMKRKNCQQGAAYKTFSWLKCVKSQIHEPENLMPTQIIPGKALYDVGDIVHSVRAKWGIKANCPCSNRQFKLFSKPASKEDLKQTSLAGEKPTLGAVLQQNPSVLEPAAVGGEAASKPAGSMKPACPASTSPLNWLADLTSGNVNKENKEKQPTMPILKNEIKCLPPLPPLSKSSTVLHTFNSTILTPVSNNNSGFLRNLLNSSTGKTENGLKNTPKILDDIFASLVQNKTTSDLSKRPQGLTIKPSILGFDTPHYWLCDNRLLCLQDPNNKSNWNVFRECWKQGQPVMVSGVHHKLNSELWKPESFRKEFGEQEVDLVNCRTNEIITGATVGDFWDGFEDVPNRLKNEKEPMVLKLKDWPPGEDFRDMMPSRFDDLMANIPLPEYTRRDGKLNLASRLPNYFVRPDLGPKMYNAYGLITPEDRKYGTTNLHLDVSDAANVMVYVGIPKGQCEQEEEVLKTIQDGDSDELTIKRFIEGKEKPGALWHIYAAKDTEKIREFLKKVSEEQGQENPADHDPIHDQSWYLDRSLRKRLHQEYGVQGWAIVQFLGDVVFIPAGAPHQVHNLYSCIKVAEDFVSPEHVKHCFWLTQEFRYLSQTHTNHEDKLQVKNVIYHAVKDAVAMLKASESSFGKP
Protocol: (§1) A panel of JmjC KDMs was tested by AlphaScreen to determine the selectivity of the compounds (Table S2). […]
(§2) KDM alpha screen selectivity
(§3) Inhibition of histone demethylases was assessed using the histone demethylase AlphaScreen assay (Amplified Luminescence Proximity Homogenous Assay) as previously reported.[4] The basis of this assay for lysine demethylases have been widely described.[5] In brief, the assay was performed in 384-well plate format using white proxiplates (PerkinElmer), and transfer of titrations of compounds (100 nl) was performed using an ECHO 550 acoustic dispenser […]
(§4) Tween- 20) containing the appropriate demethylase enzyme (see Supplementary table 1 for final concentrations) was transferred to each well of a 384-well proxiplate with a Multidrop™ Combi Reagent Dispenser, and the enzymes allowed to pre-incubate for 120 minutes with compound (final concentration of DMSO was 1%). After that time, the enzyme reaction was initiated by addition of 5 µl of a substrate mix consisting of Ketoglutarate (2-OG), Ferrous Ammonium Sulphate (FAS), L-Ascorbic Acid (LAA) and biotinylated peptide substrate (see Supporting table X for final assay concentrations) and the reaction incubated for the indicated time at room temperature. Reaction was stopped by the addition of 5 μl of assay buffer containing EDTA (7.5 mM) and NaCl (400 mM). Streptavidin Donor beads (0.08 mg/ml) and Protein-A conjugated acceptor beads (0.08 mg/ml) (AlphaScreen General IgG detection kit was from Perkin Elmer) were pre-incubated for 1 hour with an antibody to the product methyl mark (Supplementary Table 1) and the presence of biotin-H3-product was detected by addition of 5 µl of the pre-incubated AlphaScreen beads (final concentrations of 0.02 mg/ml with respect to acceptor and donor beads). Detection was allowed to proceed for 2 hour at room temperature and the assay plates read in a BMG Labtech Pherastar FS plate reader (excitation, 680 nm; emission, 570 […]
(§5) IC50(t) = Ki (1 + K ) . ( η . k .t − 1) (1) […]
(§6) Table S4. AlphaScreen assay conditions for the KDM selectivity panel

KDM5A = KDM5A (Homo sapiens, UniProt P29375); assay: KDM AlphaScreen selectivity panel, KDM5A; details: for SI over KDM5B, 5A: KDM5A IC50/KDM5B IC50
Protocol: as §1, §2, §3, §4, §5, §6

KDM5C = KDM5C (Homo sapiens, UniProt P41229); assay: KDM AlphaScreen selectivity panel, KDM5C; details: for IC50: AlphaScreen after 120 min pre-incubation, read-out: KDM IC50 5C; for SI over KDM5B, 5C: KDM5C IC50/KDM5B IC50
Protocol: as §1, §2, §3, §4, §5, §6

[1] = AlphaScreen after 120 min pre-incubation, read-out: KDM IC50 5A

Sequence of KDM5C (P41229 whole entry): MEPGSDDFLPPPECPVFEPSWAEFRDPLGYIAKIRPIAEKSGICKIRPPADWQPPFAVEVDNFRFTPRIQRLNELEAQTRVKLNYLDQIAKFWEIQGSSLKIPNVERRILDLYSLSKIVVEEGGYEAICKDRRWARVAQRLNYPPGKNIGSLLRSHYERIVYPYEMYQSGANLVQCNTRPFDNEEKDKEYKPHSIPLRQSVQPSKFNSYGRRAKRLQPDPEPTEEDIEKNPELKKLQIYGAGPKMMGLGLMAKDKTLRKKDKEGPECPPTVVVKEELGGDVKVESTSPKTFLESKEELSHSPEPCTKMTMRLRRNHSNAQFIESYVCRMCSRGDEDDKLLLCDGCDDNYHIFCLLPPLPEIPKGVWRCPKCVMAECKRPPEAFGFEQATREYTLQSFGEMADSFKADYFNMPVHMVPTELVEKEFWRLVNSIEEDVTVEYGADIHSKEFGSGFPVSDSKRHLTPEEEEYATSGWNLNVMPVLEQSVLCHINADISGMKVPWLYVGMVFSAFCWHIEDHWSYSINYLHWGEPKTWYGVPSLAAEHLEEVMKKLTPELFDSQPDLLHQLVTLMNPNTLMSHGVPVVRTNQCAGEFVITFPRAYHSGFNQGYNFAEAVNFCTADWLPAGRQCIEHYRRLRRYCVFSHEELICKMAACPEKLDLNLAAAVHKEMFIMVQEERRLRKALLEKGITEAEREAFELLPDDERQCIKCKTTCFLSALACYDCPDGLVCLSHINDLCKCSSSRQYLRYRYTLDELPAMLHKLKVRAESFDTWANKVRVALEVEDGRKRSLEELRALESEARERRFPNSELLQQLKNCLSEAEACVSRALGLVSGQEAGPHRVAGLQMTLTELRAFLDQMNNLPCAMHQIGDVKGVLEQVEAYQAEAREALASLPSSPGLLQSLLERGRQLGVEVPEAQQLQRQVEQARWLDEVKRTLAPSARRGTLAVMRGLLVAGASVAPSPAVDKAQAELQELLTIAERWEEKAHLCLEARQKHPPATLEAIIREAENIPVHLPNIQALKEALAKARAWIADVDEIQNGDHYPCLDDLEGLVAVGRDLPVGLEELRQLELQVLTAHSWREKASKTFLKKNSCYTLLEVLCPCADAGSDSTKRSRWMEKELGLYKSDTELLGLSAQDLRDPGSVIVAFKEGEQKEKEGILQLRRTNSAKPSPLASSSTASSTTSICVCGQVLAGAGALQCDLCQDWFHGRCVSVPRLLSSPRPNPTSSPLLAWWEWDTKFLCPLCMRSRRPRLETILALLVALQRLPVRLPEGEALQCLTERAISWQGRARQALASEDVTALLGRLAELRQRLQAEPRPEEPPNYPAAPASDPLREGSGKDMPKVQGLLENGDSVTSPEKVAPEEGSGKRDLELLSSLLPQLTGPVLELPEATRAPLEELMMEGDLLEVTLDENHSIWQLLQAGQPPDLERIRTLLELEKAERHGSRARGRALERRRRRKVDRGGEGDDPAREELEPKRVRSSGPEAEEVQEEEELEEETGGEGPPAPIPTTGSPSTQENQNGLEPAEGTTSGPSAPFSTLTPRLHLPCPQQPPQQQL
Sequence of KDM5A (P29375 whole entry): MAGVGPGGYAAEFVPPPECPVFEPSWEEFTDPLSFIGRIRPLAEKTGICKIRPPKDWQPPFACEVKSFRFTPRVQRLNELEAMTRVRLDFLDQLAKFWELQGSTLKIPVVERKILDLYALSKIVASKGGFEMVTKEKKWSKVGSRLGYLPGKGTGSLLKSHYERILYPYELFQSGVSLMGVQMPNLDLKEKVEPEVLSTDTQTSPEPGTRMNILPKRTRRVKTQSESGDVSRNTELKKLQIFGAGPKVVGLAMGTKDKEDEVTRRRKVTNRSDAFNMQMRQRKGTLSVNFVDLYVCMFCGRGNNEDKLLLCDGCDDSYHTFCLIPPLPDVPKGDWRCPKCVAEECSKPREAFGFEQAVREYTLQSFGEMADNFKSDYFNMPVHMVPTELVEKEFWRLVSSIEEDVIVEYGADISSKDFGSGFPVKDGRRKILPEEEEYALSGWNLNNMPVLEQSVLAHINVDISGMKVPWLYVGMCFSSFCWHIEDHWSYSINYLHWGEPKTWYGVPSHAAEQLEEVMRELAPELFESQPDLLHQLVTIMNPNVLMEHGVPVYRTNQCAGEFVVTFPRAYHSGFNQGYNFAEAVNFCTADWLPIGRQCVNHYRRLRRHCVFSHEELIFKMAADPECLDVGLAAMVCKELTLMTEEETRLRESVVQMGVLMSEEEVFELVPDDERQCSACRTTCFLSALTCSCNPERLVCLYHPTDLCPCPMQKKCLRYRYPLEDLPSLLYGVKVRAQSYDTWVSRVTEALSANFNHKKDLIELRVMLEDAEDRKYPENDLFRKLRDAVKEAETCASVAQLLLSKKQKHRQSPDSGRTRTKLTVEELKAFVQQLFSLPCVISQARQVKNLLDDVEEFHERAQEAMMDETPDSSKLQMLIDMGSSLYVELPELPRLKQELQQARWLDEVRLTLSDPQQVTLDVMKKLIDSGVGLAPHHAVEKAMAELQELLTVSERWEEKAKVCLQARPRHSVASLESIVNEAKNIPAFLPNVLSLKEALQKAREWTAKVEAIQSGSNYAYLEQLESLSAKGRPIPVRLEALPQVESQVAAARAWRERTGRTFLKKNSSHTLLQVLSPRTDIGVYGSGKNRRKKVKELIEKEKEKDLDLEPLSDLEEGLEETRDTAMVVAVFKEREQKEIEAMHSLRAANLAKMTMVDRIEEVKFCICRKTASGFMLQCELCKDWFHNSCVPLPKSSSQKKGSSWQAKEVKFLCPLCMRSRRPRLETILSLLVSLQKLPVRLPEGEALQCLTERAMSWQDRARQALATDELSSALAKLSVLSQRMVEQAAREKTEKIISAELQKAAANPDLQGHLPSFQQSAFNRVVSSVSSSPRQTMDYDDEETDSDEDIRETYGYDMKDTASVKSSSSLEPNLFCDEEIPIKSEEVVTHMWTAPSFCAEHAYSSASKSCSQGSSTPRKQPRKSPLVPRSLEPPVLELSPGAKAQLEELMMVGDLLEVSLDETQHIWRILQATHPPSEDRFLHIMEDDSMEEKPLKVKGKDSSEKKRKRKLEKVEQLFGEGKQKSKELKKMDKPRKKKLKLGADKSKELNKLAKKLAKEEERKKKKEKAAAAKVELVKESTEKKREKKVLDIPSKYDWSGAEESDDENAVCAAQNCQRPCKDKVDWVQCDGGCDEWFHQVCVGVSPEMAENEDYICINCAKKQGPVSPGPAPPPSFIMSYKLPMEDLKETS

| SMILES | IC50 (KDM3A) [µM] | IC50 (KDM5A; [1]) [nM] | SI over KDM5B, 5A (KDM5A) | IC50 (KDM5C) [nM] | SI over KDM5B, 3A (KDM3A) | IC50 (KDM5A; 120 minutes pre-incubation, read-out: KDM5A IC50) [nM] | SI over KDM5B, 5C (KDM5C) | selectivity for KDM5B over KDM5C (KDM5C) |
| --- | --- | --- | --- | --- | --- | --- | --- | --- |
| C=CC(=O)Nc1cccc(CN(C)CCc2cnn(-c3nccc4c(=O)[nH]cnc34)c2)c1 [Compound 4] | 8.4 ± 4.1 | 30 ± 4 | 1 | 778 ± 37 | – | – | – | – |
| C=CC(=O)N1CCC(n2cc(-c3[nH]c4c(C#N)cnn4c(=O)c3C(C)C)cn2)CC1 [Compound 10] | 9.4 ± 0.4 | 70 ± 8 | 4 | 1270 ± 276 | 547 | – | 74 | – |
| C=CC(=O)NCCOc1ccc(-c2[nH]c3c(C#N)cnn3c(=O)c2C(C)C)cc1 [Compound 9] | 17 ± 0.4 | 50 ± 2 | 1 | 2192 ± 19 | 264 | – | 34 | – |
| CN(C)C/C=C/C(=O)Nc1cccc(CN(C)CCc2cnn(-c3nccc4c(=O)[nH]cnc34)c2)c1 [Compound 6] | – | 657 ± 7 | – | 4570 ± 341 | – | – | – | – |
| CC(C)c1c(-c2cnn(C3CCN(C(=O)CCl)CC3)c2)[nH]c2c(C#N)cnn2c1=O [Compound 11] | 9.1 ± 0.8 | 34 ± 2 | 4 | 1040 ± 42 | 1007 | – | 115 | more than 100 fold |

The next compounds have a lower IC50 (KDM5C) than those just listed; values first:

| IC50 (KDM3A) [µM] | IC50 (KDM5A; [1]) [nM] | SI over KDM5B, 5A (KDM5A) | IC50 (KDM5C) [nM] | SI over KDM5B, 3A (KDM3A) | IC50 (KDM5A; 120 minutes pre-incubation, read-out: KDM5A IC50) [nM] | SI over KDM5B, 5C (KDM5C) | selectivity for KDM5B over KDM5C (KDM5C) | SMILES |
| --- | --- | --- | --- | --- | --- | --- | --- | --- |
| 5.7 ± 0.4 | – | 1 | 571 ± 34 | 806 | 10 | 81 | – | CC(C)c1c(-c2cnn(CCNC(=O)CCl)c2)[nH]c2c(C#N)cnn2c1=O [Compound 7] |
| 2.6 ± 0.1 | 30 ± 1 | 3 | 394 ± 11 | 260 | – | 40 | – | CN(CCc1cnn(-c2nccc3c(=O)[nH]cnc23)c1)Cc1cccc(NC(=O)CCl)c1 [Compound 5] |
